The text below walks through data of patent US7863278B2, “Isethionate salt of a selective CDK4 inhibitor” (Warner-Lambert CompanyLLC, priority 2003, dated 2011).

The nature of one data set: water solubility. The class given is physicochemical. The note with it: for solubility at 14 h: thermodynamic from solid. The source says: The other isethionate salt forms were not evaluated for metastable solubility. […] See Table 5 for a list of HPLC conditions.
Another data set in a line: pKa of conjugate acid. It counts as physicochemical. The source says:
The free base (Formula 1) is a dibasic compound, which may form both mono- and di-acid addition salts. Its conjugate acid has pKas of 7.3 and 4.1, so comparatively strong acids are necessary for generating the di-salt. Though it may be possible to form a di-isethionate salt of the compound of Formula 1, the mono-isethionate salt appears to be more useful since it requires less counter ion.

Data set [1] is described as follows: bioavailability in animal studies. It counts as in vivo. The text has this: . However, moisture uptake studies reveal that, even at low relative humidity (10% RH), the di-HCl salt absorbs water in an amount greater than about 2% of its mass, making it unsuitable for use in a solid drug product. […]. However, the process for preparing the mono-HCl salt yields partially crystalline drug substance, indicating potential problems with process scale-up. Other salt forms of the compound of Formula 1 are thus needed.

Another data set relates to neointima formation. The note with it: rats; cited from earlier work.

Structures are written as SMILES. Where two headings read alike, the source gives them in different places.

For the molecule `CC(=O)c1c(C)c2cnc(Nc3ccc(N4CCNCC4)cn3)nc2n(C2CCCC2)c1=O.Cl.Cl` [di-HCl salt], the “water solubility (in words)” value in the data set “water solubility” is “adequate water solubility”.
Consider `CC(=O)c1c(C)c2cnc(Nc3ccc(N4CCNCC4)cn3)nc2n(C2CCCC2)c1=O` [Formula 1, 6-acetyl-8-cyclopentyl-5-methyl-2-(5-piperazin-1-yl-pyridin-2-ylamino)-8H-pyrido[2,3-d]pyrimidin-7-one], for which the pKa in the data set “pKa of conjugate acid” (read-out: pKa of conjugate acid (first)) was found to be 7.3; in “pKa of conjugate acid” (read-out: pKa of conjugate acid (second)), 4.1. The “bioavailability in animal studies” value in data set [1] is given as “low bioavailability”. Besides, the “Solubility mgA/mL” value in “water solubility” (free base final pH 7.9, 14 h equilibration) is on record as 0.009 mgA/mL. For the same molecule, the solubility at 14 h turned out to be 9.2 µg/mL in the data set “water solubility” (pH 7.9, water, read-out: free base solubility) and 9 µg/mL in the data set “water solubility” (read-out: water solubility).
On to `COc1ccc(CNc2nc(N(CCO)CCO)nc3c2ncn3C(C)C)cc1` [CVT-313], for which, in the data set on neointima formation, the “inhibition of neointima formation” value is listed as “greater than 80%”.
